According to patent US8367864B2, “Dimeric double metal salts of (−)-hydroxycitric acid, methods of making and uses of same” (Glykon Technologies Group, LLC, priority 2006, dated 2013):
In brackets after ≈: the same amount, converted by molar mass.

Legend:
[1] = system: human hepatoma cell line Hep G2; details: cited from earlier work
[2] = chronic administration; resting and exercising conditions; cited from earlier work
[3] = conditions that elevate de novo lipogenesis; cited from earlier work
[4] = in vivo; cited from earlier work
[5] = Alcohol solubility (1% wt in 50% v/v ethanol); format: physicochemical; details: tested at 1% weight in 50% (v/v) ethanol solution
[6] = kinetic study
From the text: This structure is like the soluble double metal HCA salts disclosed by Balasubramanyam et al., (U.S. Pat. No. 6,160,172, issued Dec. 12, 2000; U.S. Pat. No. 6,395,296, issued May 28, 2002).

[7] = system: middle-aged rats fed a 30% fat diet; details: cited from earlier work

Structure (SMILES): O=C(O)CC(O)(C(=O)O)C(O)C(=O)O (single isomer, unassigned; (-)) [HCA, (−)-hydroxycitric acid]
- incorporation of [1,5-14C]citrate into fatty acids and cholesterol ([1]; 2.5 h and 18 h incubations, 0.5 mM or higher): strongly inhibited
- Cholesterol biosynthesis, of the control value ([1]; incorporation of tritium from tritiated water): 27%
- respiratory exchange ratio [2]: significantly lower
- energy expenditure [3]: increased
- fat synthesis [3]: reduced
- appetite and satiety [4]: promote appetite suppression and satiety

Structure (SMILES): O=C(O)CC(O)(C(=O)O)C(O)C(=O)O (centres unmarked) [K/Mg-HCA monomer]
- Alcohol Solubility (50% v/v alcohol; 1% wt test) [5]: 40%
- absorption compared to the dimer [6]: less-absorbed
- solubility (physchem): 250 mg/mL (≈ 1200 mM)

Structure (SMILES): O=C([O-])CC(O)(C(=O)[O-])C(O)C(=O)[O-].[K+].[K+].[K+] (centres unmarked) [potassium HCA]
- fat as a percentage of body weight [7]: reducing
- protein as a percentage of body weight [7]: increased
